Results taken from paper PMC10657973 (Journal of Pharmaceutical Analysis, 2023).
Structures can show the parent of a compound that is named as a salt. Each block holds one molecule with its values, some of them ahead of it.

Experiments:
serum protein = test: Protein-binding ratio of UTs in rat serum; type: in vitro ADME, rats; conditions: ultrafiltration at 37 °C
OAT1 = target: T1, OAT1 (Homo sapiens, UniProt Q4U2R8); test: Uptake of UTs in HEK293T-OAT1 cells; type: cell-based; conditions: 100 μM, 30 min, 37 °C; for uptake of HSA-bound UT in OAT1-overexpressing cells vs control cells: with HSA; for uptake of free UT in OAT1-overexpressing cells vs control cells: without HSA
T1 sequence (Q4U2R8 1-563): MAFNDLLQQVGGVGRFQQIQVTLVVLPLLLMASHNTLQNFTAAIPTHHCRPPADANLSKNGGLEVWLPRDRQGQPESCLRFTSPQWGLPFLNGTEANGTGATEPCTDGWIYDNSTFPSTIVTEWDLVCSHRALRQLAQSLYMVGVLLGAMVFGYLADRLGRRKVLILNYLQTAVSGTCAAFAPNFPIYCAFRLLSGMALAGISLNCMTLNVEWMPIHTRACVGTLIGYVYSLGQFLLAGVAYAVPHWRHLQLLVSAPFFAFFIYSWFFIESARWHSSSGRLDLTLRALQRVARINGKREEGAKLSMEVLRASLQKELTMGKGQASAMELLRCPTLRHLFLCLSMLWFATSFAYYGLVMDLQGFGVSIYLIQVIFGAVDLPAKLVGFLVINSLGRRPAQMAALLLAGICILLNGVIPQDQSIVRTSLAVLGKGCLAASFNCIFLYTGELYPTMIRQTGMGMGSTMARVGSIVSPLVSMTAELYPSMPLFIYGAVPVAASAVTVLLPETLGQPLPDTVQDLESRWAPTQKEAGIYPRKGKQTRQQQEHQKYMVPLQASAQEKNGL

[1] = type: in vivo, rats; conditions: rats; for Renal clearance half-life (t1/2), Control: 2 mg/kg i.v., urine 0-12 h; for renal excretion with MK-571 vs control: MK-571 20 mg/kg; for renal excretion with PROB vs control: PROB 60 mg/kg
OAT3 = target: T2, OAT3 (Homo sapiens, UniProt Q8TCC7); test: Uptake of UTs in HEK293T-OAT3 cells; type: cell-based; conditions: 100 μM, 30 min, 37 °C; for uptake of HSA-bound UT in OAT3-overexpressing cells vs control cells: with HSA; for uptake of free UT in OAT3-overexpressing cells vs control cells: without HSA
T2 sequence (Q8TCC7 1-542): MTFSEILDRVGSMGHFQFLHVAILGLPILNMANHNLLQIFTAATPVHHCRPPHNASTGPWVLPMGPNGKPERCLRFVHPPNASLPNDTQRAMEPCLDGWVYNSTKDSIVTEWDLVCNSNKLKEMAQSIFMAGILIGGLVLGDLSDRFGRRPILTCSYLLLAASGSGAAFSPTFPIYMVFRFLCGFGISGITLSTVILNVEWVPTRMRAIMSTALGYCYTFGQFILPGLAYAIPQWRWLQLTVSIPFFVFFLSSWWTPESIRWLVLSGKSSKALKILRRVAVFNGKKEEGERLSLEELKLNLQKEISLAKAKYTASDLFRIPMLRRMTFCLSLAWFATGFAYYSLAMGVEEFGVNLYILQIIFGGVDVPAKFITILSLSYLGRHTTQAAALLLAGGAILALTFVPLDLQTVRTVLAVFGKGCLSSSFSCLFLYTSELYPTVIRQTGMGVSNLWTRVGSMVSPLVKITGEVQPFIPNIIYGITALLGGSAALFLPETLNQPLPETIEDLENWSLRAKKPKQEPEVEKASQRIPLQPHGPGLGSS

MRP4 = test: Intracellular accumulation of UTs in MRP4-overexpressing cells; type: cell-based, human; conditions: 100 μM, 30 min, 37 °C, 4 mM ATP
rOATs = rOATs inhibition experiment; conditions: rats, H&E staining

Protein-binding ratio, Normal rats in vivo (%) (n = 6) (serum protein): > 90%
uptake of HSA-bound UT in OAT1-overexpressing cells vs control cells (OAT1): markedly increased
uptake of free UT in OAT1-overexpressing cells vs control cells (OAT1): markedly increased
Molecule: Nc1ccccc1C(=O)C[C@@H](N)C(=O)O [D-kynurenine]

Protein-binding ratio, Normal rats in vivo (%) (n = 6) (serum protein): > 90%
uptake of HSA-bound UT in OAT3-overexpressing cells vs control cells (OAT3): markedly increased
uptake of free UT in OAT3-overexpressing cells vs control cells (OAT3): markedly increased
Molecule: OC[C@H]1O[C@@H](Oc2c[nH]c3ccccc23)[C@H](O)[C@@H](O)[C@@H]1O [3-indoxyl-β-D-glucopyranoside]

uptake of HSA-bound UT in OAT1-overexpressing cells vs control cells (OAT1): significantly increased
uptake of free UT in OAT1-overexpressing cells vs control cells (OAT1): significantly increased
Molecule: O=C(O)Cc1c[nH]c2ccccc12 [Indole-3-acetic acid, indole-3-acetic acid]

uptake of free UT in OAT1-overexpressing cells vs control cells (OAT1): significantly increased
uptake of free UT in OAT3-overexpressing cells vs control cells (OAT3): significantly increased
Molecule: CC(=O)Nc1ccn([C@@H]2O[C@H](CO)[C@@H](O)[C@H]2O)c(=O)n1 [N-acetylcytidine]

Protein-binding ratio, Normal rats in vivo (%) (n = 6) (serum protein): < 70%
uptake of HSA-bound UT in OAT3-overexpressing cells vs control cells (OAT3): markedly increased
uptake of free UT in OAT3-overexpressing cells vs control cells (OAT3): markedly increased
Molecule: Cc1ccc(O[C@@H]2O[C@H](C(=O)O)[C@@H](O)[C@H](O)[C@H]2O)cc1 [p-cresol glucuronide]

Renal clearance half-life (t1/2), Control [1]: 3.7 ± 0.7 h
Molecule: [2H]c1c([2H])c([2H])c2c(O)c([2H])c(C(=O)O)nc2c1[2H] [d5-kynurenic acid]

histological structure of kidney (rOATs): unchanged
Molecule: CCCN(CCC)S(=O)(=O)c1ccc(C(=O)O)cc1 [PROB, probenecid, reference compound]

Continued, molecule first:

Molecule: d3-CMPF
Renal clearance half-life (t1/2), Control [1]: 1.9 ± 0.3 h
renal excretion with MK-571 vs control [1]: did not affect
renal excretion with PROB vs control [1]: did not affect

Molecule: N[C@@H](Cc1ccc(O)c(O)c1)C(=O)O [3-(3,4-dihydroxyphenyl)-L-alanine]
Protein-binding ratio, Normal rats in vivo (%) (n = 6) (serum protein): < 70%

Molecule: CC(=O)N[C@@H](CCCN=C(N)N)C(=O)O [N-acetyl-L-arginine]
intracellular accumulation in MRP4-overexpressing cells vs control cells (MRP4): significantly decreased

Molecule: CCc1ccc(OS(=O)(=O)[O-])cc1.[K+] [4-ethylphenyl sulfate]
Protein-binding ratio, Normal rats in vivo (%) (n = 6) (serum protein): > 90%
uptake of HSA-bound UT in OAT1-overexpressing cells vs control cells (OAT1): no significant change
uptake of free UT in OAT1-overexpressing cells vs control cells (OAT1): substantially elevated
uptake of HSA-bound UT in OAT3-overexpressing cells vs control cells (OAT3): no significant change
uptake of free UT in OAT3-overexpressing cells vs control cells (OAT3): substantially elevated

Molecule: Cc1ccc(OS(=O)(=O)O)cc1 [p-cresol sulfate]
Protein-binding ratio, Normal rats in vivo (%) (n = 6) (serum protein): > 90%
uptake of HSA-bound UT in OAT1-overexpressing cells vs control cells (OAT1): significantly increased
uptake of free UT in OAT1-overexpressing cells vs control cells (OAT1): significantly increased
uptake of free UT in OAT3-overexpressing cells vs control cells (OAT3): significantly increased

Molecule: [2H]c1c([2H])c([2H])c2c(O)c([2H])c(C(=O)O)nc2c1O [d4-xanthurenic acid]
renal excretion with MK-571 vs control [1]: reduce
renal excretion with PROB vs control [1]: reduce

Molecule: Cn1cnc2c(ncn2[C@@H]2O[C@H](CO)[C@@H](O)[C@H]2O)c1=O [1-methyl-inosine]
uptake of free UT in OAT3-overexpressing cells vs control cells (OAT3): significantly higher

Molecule: O=S(=O)(O)Oc1c[nH]c2ccccc12 [3-indoxyl sulfate]
uptake of HSA-bound UT in OAT3-overexpressing cells vs control cells (OAT3): no significant change
uptake of free UT in OAT3-overexpressing cells vs control cells (OAT3): substantially elevated

Molecule: NCCCC[C@H](NCC(=O)O)C(=O)O [N-(1-carboxymethyl)-L-lysine]
Protein-binding ratio, Normal rats in vivo (%) (n = 6) (serum protein): < 70%

Molecule: O=C(O)[C@H]1O[C@@H](Oc2ccccc2)[C@H](O)[C@@H](O)[C@@H]1O [Phenyl-β-D-glucuronide, phenyl-β-D-glucuronide]
Protein-binding ratio, Normal rats in vivo (%) (n = 6) (serum protein): < 70%
uptake of HSA-bound UT in OAT3-overexpressing cells vs control cells (OAT3): significantly increased
uptake of free UT in OAT3-overexpressing cells vs control cells (OAT3): significantly increased
